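Interpolation was linear, between the two tested concentrations surrounding the appropriate level; five concentrations were tested over 48 hours in 96-well plates. GI50: concentration for 50% inhibition of growth. TGI is the concentration that stops growth completely.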

This passage reports GI50 and TGI results from PubChem BioAssay (NCI).

Among the test systems are DU-145 prostate; CCRF-CEM leukemia; HT29 colon; HOP-62 NSCLC; OVCAR-5 ovarian; IGROV1 ovarian; UACC-257 melanoma; U251 CNS; MALME-3M melanoma; UACC-62 melanoma.
Common to all, as to test: growth of human tumour cells (NCI), 48 h

`NC(=O)c1ccc(N(C(N)=O)c2c(F)cccc2F)nc1-c1ccc(F)cc1F`: the GI50 in the assay on DU-145 prostate, in the assay with CCRF-CEM leukemia, in the assay with HT29 colon, in the assay with HOP-62 NSCLC, with OVCAR-5 ovarian and in the assay with IGROV1 ovarian was above 100 µM throughout. Also, the GI50 in the assay on UACC-257 melanoma, in the assay on U251 CNS, in the assay with MALME-3M melanoma and in the assay on UACC-62 melanoma was above 100 µM in each case. Also, the TGI in the assay with DU-145 prostate, with CCRF-CEM leukemia, in the assay with HT29 colon, with HOP-62 NSCLC, in the assay on OVCAR-5 ovarian and in the assay with IGROV1 ovarian was above 100 µM in each case. In addition, the TGI in the assay on UACC-257 melanoma, in the assay with U251 CNS, in the assay on MALME-3M melanoma and in the assay with UACC-62 melanoma was above 100 µM each time.
Regarding `C=CC(C)(O)CC/C=C(\CO)C(=O)OC1C(C)OC(O[C@](C)(C=C)CC/C=C(\CO)C(=O)O[C@H]2C[C@@]3(C(=O)OC4OC(CO)C(O)C(O)C4OC4OC(C)C(OC5OC(CO)C(O)C5O)C(OC5OC(CO)C(O)C(O)C5O)C4O)C(CC2(C)C)C2=CCC4[C@@]5(C)CC[C@H](OC6OC(COC7OC(C)C(O)C(O)C7OC7OCC(O)C(O)C7O)C(O)C(O)C6NC(C)=O)C(C)(C)C5CC[C@@]4(C)[C@]2(C)C[C@H]3O)C(O)C1O` (stereo partly drawn), the GI50 in the assay with DU-145 prostate was 0.131 µM; with CCRF-CEM leukemia, 0.125 µM; in the assay with HT29 colon, 1.42 µM; in the assay with HOP-62 NSCLC, 0.275 µM; in the assay with OVCAR-5 ovarian, 1.38 µM; with IGROV1 ovarian it was 2.96 µM. The GI50 was 0.461 µM with UACC-257 melanoma, 0.101 µM in the assay with U251 CNS, 0.261 µM in the assay with MALME-3M melanoma and 0.687 µM in the assay with UACC-62 melanoma. The TGI is 0.512 µM in the assay with DU-145 prostate; 7.55 µM in the assay with CCRF-CEM leukemia; 6.06 µM in the assay with HT29 colon; 1.58 µM in the assay on HOP-62 NSCLC; 5.95 µM with OVCAR-5 ovarian; 9.63 µM with IGROV1 ovarian. The TGI is 1.47 µM in the assay on UACC-257 melanoma, 0.45 µM in the assay on U251 CNS, 1.01 µM in the assay on MALME-3M melanoma and 5.28 µM in the assay on UACC-62 melanoma.
Take `O=C(CCCCCCCCC(=O)N/N=C\c1cc(Cl)ccc1O)N/N=C\c1cc(Cl)ccc1O`: the GI50 in the assay with DU-145 prostate is 0.495 µM; in the assay on CCRF-CEM leukemia it was 0.172 µM; with HT29 colon, above 25.5 µM; in the assay on HOP-62 NSCLC it was 0.284 µM; in the assay with OVCAR-5 ovarian, 7.99 µM; with IGROV1 ovarian it was 0.83 µM. The GI50 in the assay on UACC-257 melanoma was 0.306 µM; in the assay on U251 CNS, 0.192 µM; in the assay with MALME-3M melanoma, 0.462 µM; in the assay on UACC-62 melanoma, 0.235 µM. Besides, the TGI in the assay with DU-145 prostate is above 100 µM; in the assay on CCRF-CEM leukemia, 24.6 µM; in the assay on HT29 colon, above 100 µM; in the assay with HOP-62 NSCLC it was above 100 µM; in the assay with OVCAR-5 ovarian, above 100 µM; in the assay with IGROV1 ovarian, above 100 µM. Also, the values for the TGI in the assay with U251 CNS and in the assay with MALME-3M melanoma were 25.9 µM and above 100 µM, respectively.
Turning to `NNC(=O)C(O)C(O)C(=O)NN` (stereo not drawn), the TGI in the assay on DU-145 prostate, in the assay on CCRF-CEM leukemia, in the assay on HT29 colon, in the assay with HOP-62 NSCLC, with OVCAR-5 ovarian and in the assay with IGROV1 ovarian was above 100 µM each time. In addition, the TGI with UACC-257 melanoma, in the assay with U251 CNS, in the assay with MALME-3M melanoma and with UACC-62 melanoma was above 100 µM each time.
As for `COc1cccc2c1cc1c3c(cc4c(c32)OCO4)C(=O)N1`, the GI50 in the assay on DU-145 prostate is 8.79 µM; with CCRF-CEM leukemia, 5.15 µM; in the assay with HT29 colon, 5.02 µM; with HOP-62 NSCLC, 6.89 µM; with OVCAR-5 ovarian it was 6.56 µM; in the assay on IGROV1 ovarian it was 4.26 µM. Further, the GI50 in the assay with UACC-257 melanoma was 27.3 µM; in the assay on U251 CNS, 5.78 µM; with MALME-3M melanoma it was 6.5 µM; in the assay on UACC-62 melanoma it was 4.65 µM. Besides, the TGI with DU-145 prostate is 66.4 µM; in the assay with CCRF-CEM leukemia, above 100 µM; in the assay on HT29 colon, 73 µM; with HOP-62 NSCLC, 37.6 µM; with OVCAR-5 ovarian it was above 100 µM; in the assay on IGROV1 ovarian it was 34.4 µM. Also, the TGI in the assay on UACC-257 melanoma was above 100 µM; in the assay with U251 CNS, 21.1 µM; in the assay with MALME-3M melanoma it was above 100 µM; in the assay on UACC-62 melanoma, above 100 µM.
Consider `CCCCCCCCCCCCCCCCOCC(O)CO` (stereo not drawn), for which the TGI with DU-145 prostate worked out at 34 µM; in the assay with CCRF-CEM leukemia it was 27.3 µM; in the assay with HT29 colon, 31.8 µM; with HOP-62 NSCLC it was 43 µM; in the assay on OVCAR-5 ovarian, 52.2 µM; in the assay on IGROV1 ovarian it was 31.1 µM. The TGI in the assay with UACC-257 melanoma worked out at 35.7 µM; with U251 CNS, 36.2 µM; with MALME-3M melanoma, 36.1 µM; in the assay with UACC-62 melanoma, 35.2 µM.
As to `Cn1cc(NC(=O)Nc2cc(C(=O)Nc3cc(C(=O)Nc4cc(S(=O)(=O)O)c5cc(S(=O)(=O)O)cc(S(=O)(=O)O)c5c4)n(C)c3)n(C)c2)cc1C(=O)Nc1cc(C(=O)Nc2cc(S(=O)(=O)O)c3cc(S(=O)(=O)O)cc(S(=O)(=O)O)c3c2)n(C)c1`, the TGI with DU-145 prostate, in the assay with CCRF-CEM leukemia, in the assay with HT29 colon, in the assay on HOP-62 NSCLC, in the assay with OVCAR-5 ovarian and in the assay on IGROV1 ovarian was above 100 µM each time. The TGI with UACC-257 melanoma, in the assay on U251 CNS, with MALME-3M melanoma and with UACC-62 melanoma was above 100 µM in each case.
Consider `CCCOC(=O)C1C2CCC(O2)C1C(=O)O` (stereo not drawn), for which the TGI with DU-145 prostate, in the assay with CCRF-CEM leukemia, in the assay on HT29 colon, in the assay on HOP-62 NSCLC, in the assay with OVCAR-5 ovarian and with IGROV1 ovarian was above 100 µM in each case. Besides, the TGI in the assay on UACC-257 melanoma, with U251 CNS, in the assay with MALME-3M melanoma and in the assay with UACC-62 melanoma was above 100 µM each time.
Regarding `Cc1ccc(-c2n[nH]c(=O)c3noc(-c4ccc(C)cc4)c23)cc1`, the GI50 in the assay on DU-145 prostate was 2.82 µM; in the assay on CCRF-CEM leukemia, 2.45 µM; in the assay with HT29 colon, 0.4 µM; in the assay with HOP-62 NSCLC, 0.835 µM; in the assay on OVCAR-5 ovarian, 5.99 µM; in the assay with IGROV1 ovarian it was 1.89 µM. The GI50 was 5.87 µM in the assay on UACC-257 melanoma, 0.814 µM with U251 CNS, 1.09 µM in the assay with MALME-3M melanoma and 0.718 µM with UACC-62 melanoma. Also, the TGI with DU-145 prostate is 15.2 µM; in the assay on CCRF-CEM leukemia it was above 100 µM; in the assay with HT29 colon it was 15.8 µM; in the assay on HOP-62 NSCLC, 13.4 µM; in the assay with OVCAR-5 ovarian, above 100 µM; in the assay on IGROV1 ovarian, 28.6 µM. For the same compound, the TGI is above 100 µM in the assay with UACC-257 melanoma, 18.8 µM in the assay on U251 CNS, 23.4 µM in the assay with MALME-3M melanoma and 56.5 µM in the assay on UACC-62 melanoma.
